Our source for the IC50 cell viability values is the supplement of paper PMC12137928.

Where a name gives a salt, the structure may show the parent alone.

This test has as its system HCT116. Particulars: 72 h. A digest of the protocol: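 HCT116 cells were plated at 250 per well in 1536-well plates and allowed 5 h to attach. CellTiter-Glo luminescence was normalized to vehicle as 0% and positive control as -100%, followed by pattern correction. Four-parameter Hill fits provided IC50 and maximal efficacy.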

`CC1=C(C(=O)O)N2C(=O)[C@@H](NC(=O)[C@H](N)C3=CCC=CC3)[C@H]2SC1` [CEPHRADINE] had an IC50 cell viability (ICRF193 0 nM) above 45.8 µM and an IC50 cell viability (ICRF193 200 nM) above 45.8 µM.

For the compound `O=C(O)COCCN1CCN(C(c2ccccc2)c2ccc(Cl)cc2)CC1` (centres undefined) [CETIRIZINE HYDROCHLORIDE], the IC50 cell viability (ICRF193 0 nM) is above 45.8 µM and the IC50 cell viability (ICRF193 200 nM) is above 45.8 µM.

As for `C=C[C@H]1CN2CC[C@H]1C[C@H]2[C@H](O)c1ccnc2ccccc12` [CINCHONIDINE], the IC50 cell viability was above 45.8 µM (ICRF193 0 nM) and above 45.8 µM (ICRF193 200 nM).

The compound `O=C(O)/C=C/c1ccccc1` [CINNAMIC ACID] returned an IC50 cell viability (ICRF193 0 nM) above 45.8 µM and an IC50 cell viability (ICRF193 200 nM) above 45.8 µM.

In the case of `C[N+](C)(C)CCOP(=O)(O)OP(=O)([O-])OC[C@H]1O[C@@H](n2ccc(N)nc2=O)[C@H](O)[C@@H]1O` [CITICOLINE], the IC50 cell viability runs as follows: (ICRF193 0 nM) above 45.8 µM; (ICRF193 200 nM) above 45.8 µM.

Turning to `O=C([O-])[C@H]1/C(=C/CO)O[C@@H]2CC(=O)N21.[Li+]` [CLAVULANATE LITHIUM], the IC50 cell viability was above 45.8 µM (ICRF193 0 nM) and above 45.8 µM (ICRF193 200 nM).

Consider `Nc1ccn([C@@H]2O[C@H](CO)[C@@H](O)[C@H]2O)c(=O)n1` [CYTIDINE], for which the IC50 cell viability (ICRF193 0 nM) was above 45.8 µM and the IC50 cell viability (ICRF193 200 nM) is above 45.8 µM.

As for `C=CCN1C[C@H](C(=O)N(CCCN(C)C)C(=O)NCC)C[C@@H]2c3cccc4[nH]cc(c34)C[C@H]21` [Cabergoline], the IC50 cell viability runs as follows: (ICRF193 0 nM) above 45.8 µM; (ICRF193 200 nM) above 45.8 µM.

`CCOC(=O)NNc1ccc(N(CC)CC(C)O)nn1` (centres undefined) [Cadralazine]: the IC50 cell viability (ICRF193 0 nM) is above 45.8 µM and the IC50 cell viability (ICRF193 200 nM) is above 45.8 µM.

The compound `Cn1c(=O)c2c(ncn2C)n(C)c1=O` [Caffeine] showed an IC50 cell viability (ICRF193 0 nM) above 45.8 µM and an IC50 cell viability (ICRF193 200 nM) above 45.8 µM.

On to `C=C1/C(=C\C=C2/CCC[C@]3(C)[C@@H]([C@H](C)CCCC(C)(C)O)CC[C@@H]23)C[C@@H](O)C[C@@H]1O` [Calcitriol], for which the IC50 cell viability by setting is: (ICRF193 0 nM) above 45.8 µM; (ICRF193 200 nM) above 45.8 µM.

Turning to `CC(C)(CO)[C@@H](O)C(=O)NCCCC(=O)O` [Calcium hopantenate], the IC50 cell viability by setting is: (ICRF193 0 nM) above 45.8 µM; (ICRF193 200 nM) above 45.8 µM.

As for `CC(=O)CCC(=O)O` [Calcium levulinate], the IC50 cell viability reads like this: (ICRF193 0 nM) above 45.8 µM; (ICRF193 200 nM) above 45.8 µM.

Turning to `C=CCCCCCCCCC(=O)[O-].C=CCCCCCCCCC(=O)[O-].[Ca+2]` [Calcium undecylenate], the IC50 cell viability reads like this: (ICRF193 0 nM) above 45.8 µM; (ICRF193 200 nM) above 45.8 µM.

Turning to `CN(C)C(=O)COC(=O)Cc1ccc(OC(=O)c2ccc(NC(=N)N)cc2)cc1` [Camostat], the IC50 cell viability is above 45.8 µM (ICRF193 0 nM) and above 45.8 µM (ICRF193 200 nM).

On to `CCN(CC)CCNC(C(=O)OCCC(C)C)c1ccccc1` (centres undefined) [Camylofin], for which the IC50 cell viability (ICRF193 0 nM) was above 45.8 µM and the IC50 cell viability (ICRF193 200 nM) was above 45.8 µM.

Compound `Cc1ccc([C@@H]2O[C@H](CO)[C@@H](O)[C@H](O)[C@H]2O)cc1Cc1ccc(-c2ccc(F)cc2)s1` [Canagliflozin] registered an IC50 cell viability (ICRF193 0 nM) above 45.8 µM and an IC50 cell viability (ICRF193 200 nM) above 45.8 µM.

In the case of `CCCCCOC(=O)Nc1nc(=O)n([C@@H]2O[C@H](C)[C@@H](O)[C@H]2O)cc1F` [Capecitabine], the IC50 cell viability is, setting by setting: (ICRF193 0 nM) above 45.8 µM; (ICRF193 200 nM) above 45.8 µM.

Turning to `C[C@@H]1NC(=O)[C@@H](N)CNC(=O)[C@H]([C@H]2CCNC(N)=N2)NC(=O)/C(=C/NC(N)=O)NC(=O)[C@H](CNC(=O)C[C@@H](N)CCCN)NC1=O` [Capreomycin IB], the IC50 cell viability (ICRF193 0 nM) is above 45.8 µM and the IC50 cell viability (ICRF193 200 nM) was above 45.8 µM.

With `CN1N=C2CCN(C(=O)[C@@H](COCc3ccccc3)NC(=O)C(C)(C)N)C[C@@]2(Cc2ccccc2)C1=O` [Capromorelin], the IC50 cell viability is above 45.8 µM (ICRF193 0 nM) and above 45.8 µM (ICRF193 200 nM).

The compound `O=C1C2CC=CCC2C(=O)N1SC(Cl)(Cl)Cl` (centres undefined) [Captan] gave an IC50 cell viability (ICRF193 0 nM) above 45.8 µM and an IC50 cell viability (ICRF193 200 nM) above 45.8 µM.

Turning to `C[C@H](CS)C(=O)N1CCC[C@H]1C(=O)O` [Captopril], the IC50 cell viability (ICRF193 0 nM) was above 45.8 µM and the IC50 cell viability (ICRF193 200 nM) was above 45.8 µM.

As for `CCN(CC)CCOC(=O)C1(c2ccccc2)CCCC1` [Caramiphen edisylate], the IC50 cell viability was above 45.8 µM (ICRF193 0 nM) and above 45.8 µM (ICRF193 200 nM).

With `C[N+](C)(C)CCOC(N)=O` [Carbachol], the IC50 cell viability was above 45.8 µM (ICRF193 0 nM) and above 45.8 µM (ICRF193 200 nM).

Turning to `COC(=O)N/N=C/c1c[n+]([O-])c2ccccc2[n+]1[O-]` [Carbadox], the IC50 cell viability is, setting by setting: (ICRF193 0 nM) above 45.8 µM; (ICRF193 200 nM) above 45.8 µM.

The compound `NC(=O)N1c2ccccc2C=Cc2ccccc21` [Carbamazepine] gave an IC50 cell viability (ICRF193 0 nM) above 45.8 µM and an IC50 cell viability (ICRF193 200 nM) above 45.8 µM.

`CNC(=O)Oc1cccc2ccccc12` [Carbaryl]: the IC50 cell viability was above 45.8 µM (ICRF193 0 nM) and above 45.8 µM (ICRF193 200 nM).
